Measurements as given in patent US6204384A, “Substituted 3-amino-2-hydroxyphenylacetamide derivatives as enzyme inhibitors (II)” (Corvas International, Inc., priority 1997, dated 2001).

Assays:
[1] = literature; cited from earlier work
[2] = literature; cited from earlier work; remark: listed apart in the source
[3] = system: trypsin, plasmin and kallikrein; conditions: literature, inhibiting trypsin; cited from earlier work
[4] = system: thrombotic occlusion of the carotid artery; experiment: Rat model of FeCl3-induced platelet-dependent arterial thrombosis; type: in vivo; conditions: dose that prevents complete thrombotic occlusion in 50% of animals tested, read-out: ED50 for thrombus prevention in the FeCl3 model of arterial thrombosis
Procedure: The antithrombotic (prevention of thrombus formation) properties of compounds of the present invention are evaluated using the following established experimental model of acute vascular thrombosis which is a rat model of FeCl3 -induced platelet-dependent arterial thrombosis.
This is a well characterized model of platelet dependent, arterial thrombosis which has been used in the evaluation potential antithrombotic compounds such as direct thrombin inhibitors. See, Kurz, K. D., Main, B. W., and Sandusky, G. E., Thromb. Res., 60: 269-280 (1990). In this model a platelet-rich, occlusive thrombus is formed in a segment of the rat carotid artery treated locally with a fresh solution of FeCl3 absorbed to a piece of filter paper. […] The effect of a test compound on the incidence of occlusive thrombus formation following the application of the […] is monitored by ultrasonic flowtometry and is used as the primary end point. […]
Following surgery the animals are randomized in either a control (saline) or treatment group with test compound, with at least 6 animals per group per dose. […] Blood pressure, blood flow, heart rate, and respiration are monitored for 60 minutes.
The incidence of occlusion (defined as the attainment of zero blood flow) is recorded as the primary end point. […]

Row | SMILES | toxicity, in words [1] | pharmacokinetics, in words [2] | selectivity, in words [3] | ED50 [4]
1 | N=C(N)c1ccc(CC(=O)C(=O)O)cc1 [APPA, 4-amidinophenylpyruvic acid] | low toxicity | favourable pharmacokinetics | non-selective, inhibiting trypsin, plasmin and kallikrein | –
2 | CC1CNc2c(cccc2S(=O)(=O)N[C@@H](CCCNC(=N)N)C(=O)N2CC[C@@H](C)C[C@@H]2C(=O)O)C1 (stereo partly drawn) [Argatroban, 2R,4R-4-methyl-1-[N-2-(3-methyl-1,2,3,4-tetrahydro-8-quinolinesulfonyl)-L-argininy]-2-piperdinecarboxylic acid] | – | – | – | 3.8 mg/kg
